Measurements from patent publication US20260115346A1, “METHOD AND DEVICE FOR DI[…]/OR S[…]” (SCHWING TECHNOLOGIES GMBH, priority 2022, published 2026).

Tests used:
[1] = test system: spores of the bacterium Geobacillus stearothermophilis; experiment: Validation tests for disinfection of spore strips SAL 10^5; assay type: cell-based, Geobacillus stearothermophilus; conditions: for Biological result #not sterile/#tested: 50-55° C.
[2] = test system: spores of the bacterium Geobacillus stearothermophilis; experiment: Validation tests for disinfection of laboratory utensils dripped with spore suspension SAL 10^6; assay type: cell-based, Geobacillus stearothermophilus; conditions: for Biological result #not sterile/#tested: PES in solution 4%
germs = experiment: Disinfection and sterilization process on various objects, number of germs after treatment; conditions: 55° C., 20 mbar; for Number of germs/m^3 after disinfection: 1.5 g/m^3 PES, 15 min; for Number of germs/m^3 after sterilization: 4 g/m^3 PES, 30 min
Protocol: Various objects were treated with the method according to the invention in order to disinfect and sterilize them.
The following process parameters were used in the disinfection process:
The following process parameters were used in the sterilization process: […]

[3] = test system: human patellar tendon allografts; conditions: in vitro study; cited from earlier work
[4] = object: Mobile electronic display device

CC(=O)OO [PES, peracetic acid]
subsequent growth or multiplication of the spores ([1]; all the spore strips tested at different PES concentrations and different process times): No subsequent growth or multiplication of the spores could be detected
Biological result #not sterile/#tested ([1]; test 1, PES in solution 6%, 3 g/m^3 PES in process chamber, 240 min): 0/2
Biological result #not sterile/#tested ([1]; test 2, PES in solution 6%, 3 g/m^3 PES in process chamber, 120 min): 0/1
Biological result #not sterile/#tested ([1]; test 3, PES in solution 6%, 1.7 g/m^3 PES in process chamber, 150 min): 0/2
Biological result #not sterile/#tested ([1]; test 4, PES in solution 4%, 2 g/m^3 PES in process chamber, 120 min): 0/1
Biological result #not sterile/#tested ([1]; test 5, PES in solution 4%, 1.9 g/m^3 PES in process chamber, 120 min): 0/2
Biological result #not sterile/#tested ([1]; test 6, PES in solution 4%, 1.9 g/m^3 PES in process chamber, 90 min): 0/2
Biological result #not sterile/#tested ([1]; test 7, PES in solution 4%, 1.9 g/m^3 PES in process chamber, 60 min): 0/4
Biological result #not sterile/#tested ([1]; test 8, PES in solution 4%, 1.9 g/m^3 PES in process chamber, 45 min): 0/1
Biological result #not sterile/#tested ([1]; test 9, PES in solution 4%, 1.9 g/m^3 PES in process chamber, 40 min): 0/2
Biological result #not sterile/#tested ([1]; test 10, PES in solution 4%, 1.9 g/m^3 PES in process chamber, 30 min): 0/2
Biological result #not sterile/#tested ([1]; test 11, PES in solution 4%, 1.9 g/m^3 PES in process chamber, 20 min): 0/2
Biological result #not sterile/#tested ([1]; test 12, PES in solution 4%, 1.9 g/m^3 PES in process chamber, 15 min): 0/1
Biological result #not sterile/#tested ([1]; test 13, PES in solution 4%, 1.9 g/m^3 PES in process chamber, 10 min): 0/1
Biological result #not sterile/#tested ([1]; test 14, PES in solution 4%, 1.9 g/m^3 PES in process chamber, 5 min): 0/1
Biological result #not sterile/#tested ([1]; test 15, PES in solution 4%, 1.7 g/m^3 PES in process chamber, 20 min): 0/1
Biological result #not sterile/#tested ([1]; test 16, PES in solution 4%, 1.7 g/m^3 PES in process chamber, 15 min): 0/1
Biological result #not sterile/#tested ([1]; test 17, PES in solution 4%, 1.5 g/m^3 PES in process chamber, 240 min): 0/2
Biological result #not sterile/#tested ([1]; test 18, PES in solution 4%, 1.5 g/m^3 PES in process chamber, 150 min): 0/2
Biological result #not sterile/#tested ([1]; test 19, PES in solution 4%, 1.3 g/m^3 PES in process chamber, 20 min): 0/1
Biological result #not sterile/#tested ([1]; test 20, PES in solution 4%, 1.3 g/m^3 PES in process chamber, 15 min): 0/1
Biological result #not sterile/#tested ([1]; test 21, PES in solution 4%, 0.94 g/m^3 PES in process chamber, 60 min): 0/5
Biological result #not sterile/#tested ([1]; test 22, PES in solution 4%, 0.94 g/m^3 PES in process chamber, 40 min): 0/1
Biological result #not sterile/#tested ([1]; test 23, PES in solution 4%, 0.94 g/m^3 PES in process chamber, 30 min): 0/2
Biological result #not sterile/#tested ([1]; test 24, PES in solution 4%, 0.94 g/m^3 PES in process chamber, 20 min): 0/2
Biological result #not sterile/#tested ([1]; test 25, PES in solution 4%, 0.94 g/m^3 PES in process chamber, 15 min): 0/1
Biological result #not sterile/#tested ([1]; test 26, PES in solution 4%, 0.94 g/m^3 PES in process chamber, 10 min): 0/1
Biological result #not sterile/#tested ([1]; test 27, PES in solution 4%, 0.94 g/m^3 PES in process chamber, 5 min): 0/1
Biological result #not sterile/#tested ([1]; test 28, PES in solution 4%, 0.47 g/m^3 PES in process chamber, 60 min): 0/1
Biological result #not sterile/#tested ([1]; test 29, PES in solution 4%, 0.47 g/m^3 PES in process chamber, 30 min): 0/1
Biological result #not sterile/#tested ([1]; test 30, PES in solution 4%, 0.47 g/m^3 PES in process chamber, 15 min): 0/1
Biological result #not sterile/#tested ([1]; test 31, PES in solution 4%, 0.47 g/m^3 PES in process chamber, 10 min): 0/1
Biological result #not sterile/#tested ([1]; test 32, PES in solution 4%, 0.47 g/m^3 PES in process chamber, 5 min): 0/1
Biological result #not sterile/#tested ([2]; test 5, 1.9 g/m^3 PES in process chamber, 120 min, growth after seven days): 0/4
Biological result #not sterile/#tested ([2]; test 7, 1.9 g/m^3 PES in process chamber, 60 min, growth after seven days): 0/4
Biological result #not sterile/#tested ([2]; test 8, 1.9 g/m^3 PES in process chamber, 45 min, growth after seven days): 0/4
Biological result #not sterile/#tested ([2]; test 12, 1.9 g/m^3 PES in process chamber, 15 min, growth after seven days): 0/4
Biological result #not sterile/#tested ([2]; test 13, 1.9 g/m^3 PES in process chamber, 10 min, growth after seven days): 0/4
Biological result #not sterile/#tested ([2]; test 14, 1.9 g/m^3 PES in process chamber, 5 min, growth after seven days): 0/4
Biological result #not sterile/#tested ([2]; test 15, 1.7 g/m^3 PES in process chamber, 20 min, growth after seven days): 0/4
Biological result #not sterile/#tested ([2]; test 16, 1.7 g/m^3 PES in process chamber, 15 min, growth after seven days): 0/4
Biological result #not sterile/#tested ([2]; test 19, 1.3 g/m^3 PES in process chamber, 20 min, growth after seven days): 0/4
Biological result #not sterile/#tested ([2]; test 20, 1.3 g/m^3 PES in process chamber, 15 min, growth after seven days): 0/4
Biological result #not sterile/#tested ([2]; test 21, 0.94 g/m^3 PES in process chamber, 60 min, growth after seven days): 0/4
Biological result #not sterile/#tested ([2]; test 22, 0.94 g/m^3 PES in process chamber, 40 min, growth after seven days): 0/4
Biological result #not sterile/#tested ([2]; test 23, 0.94 g/m^3 PES in process chamber, 30 min, not sterile: pipette): (pipette) 1/8
Biological result #not sterile/#tested ([2]; test 24, 0.94 g/m^3 PES in process chamber, 20 min, growth after seven days): 0/8
Biological result #not sterile/#tested ([2]; test 25, 0.94 g/m^3 PES in process chamber, 15 min, not sterile: pipette): (pipette) 1/4
Biological result #not sterile/#tested ([2]; test 26, 0.94 g/m^3 PES in process chamber, 10 min, growth after seven days): 0/4
Biological result #not sterile/#tested ([2]; test 27, 0.94 g/m^3 PES in process chamber, 5 min, not sterile: pipette): (pipette) 1/4
Biological result #not sterile/#tested ([2]; test 28, 0.47 g/m^3 PES in process chamber, 60 min, growth after seven days): 0/4
Biological result #not sterile/#tested ([2]; test 29, 0.47 g/m^3 PES in process chamber, 30 min, growth after seven days): 0/4
Biological result #not sterile/#tested ([2]; test 30, 0.47 g/m^3 PES in process chamber, 15 min, not sterile: Eppi): (Eppi) 1/4
Biological result #not sterile/#tested ([2]; test 31, 0.47 g/m^3 PES in process chamber, 10 min, not sterile: pipette): (pipette) 1/4
Biological result #not sterile/#tested ([2]; test 32, 0.47 g/m^3 PES in process chamber, 5 min, not sterile: mask, pipette): (mask, pipette) 2/4
growth of the spores after seven days in nutrient solution ([2]; various experiments, relatively low PES concentration in the process chamber, short process duration): spore growth was observed after seven days
Number of germs/m^3 after disinfection (germs; object: FFP mask): 1220 germs/m^3
Number of germs/m^3 after sterilization (germs; object: FFP mask): germ-free
Number of germs/m^3 after disinfection (germs; object: Infusomat): 1160 germs/m^3
Number of germs/m^3 after sterilization (germs; object: Infusomat): germ-free
Number of germs/m^3 after disinfection (germs; object: MNS): 870 germs/m^3
Number of germs/m^3 after sterilization (germs; object: MNS): germ-free
Number of germs/m^3 after disinfection (germs; [4]): 430 germs/m^3
Number of germs/m^3 after sterilization (germs; [4]): germ-free
Number of germs/m^3 after disinfection (germs; object: Surgical clogs): 1370 germs/m^3
Number of germs/m^3 after sterilization (germs; object: Surgical clogs): germ-free
Number of germs/m^3 after disinfection (germs; object: blower filter unit): 1740 germs/m^3
Number of germs/m^3 after sterilization (germs; object: blower filter unit): germ-free
Number of germs/m^3 after disinfection (germs; object: disposable gloves): 920 germs/m^3
Number of germs/m^3 after sterilization (germs; object: disposable gloves): germ-free
Number of germs/m^3 after disinfection (germs; object: protective overalls): 270 germs/m^3
Number of germs/m^3 after sterilization (germs; object: protective overalls): germ-free
Number of germs/m^3 after disinfection (germs; object: visor): 360 germs/m^3
Number of germs/m^3 after sterilization (germs; object: visor): germ-free
cytotoxic or pro-inflammatory effect [3]: no cytotoxic or pro-inflammatory effect
